Key:
[1] = system: PBT138 patient tumor-derived glioma cells; assay: In vitro cytotoxicity assay, IL13Rα2-CAR T cells ± ICG-001; type: cell-based, human
Method: FIG. 2. Combinational strategy of CAR T cell-mediated tumor-antigen targeting with ICG-001 induced differentiation in glioma. […] (B) Cytotoxicity of HER2 CAR-T cells and tumor cells (1:5 ratio) was enhanced by ICG-001 at concentrations 1.25-5 μM. (C) Treatment of PBT138 patient glioma tumors with CAR T IL13Rα2+/−ICG-001.
It has also been observed that ICG-001-induced differentiation of PBT017 and PBT138 (data not shown).

[2] = system: Wnt target genes BIRC5/Survivin and EphB2; assay: Quantitative RT-PCR of Wnt target genes in human glioma cell lines; type: cell-based
Method: (§1) FIG. 15. Expression of target genes post-ICG-001 treatment (0-10 μM) by RT-PCR using (A-C) mouse Survivin in GL261-IL13, GL261, and K-luc cells. (D) Survivin in PBT147 human glioma cells. (E, F) Luciferase reporter assay indicating downregulation of Survivin/BIRC5 in PBT017 and PBT030 cell lines.
(§2) FIG. 16 is a table showing the expression of the target genes survivin/BIRC5 post-ICG-001 treatment ([…]) as detected by RT-PCR and Luciferase Reporter Assay.
(§3) ICG-001 differentially affects the expression of the Wnt target genes BIRC5/Survivin and EphB2 in vitro. […] The effects of ICG-001 on Wnt/CBP/β-catenin signaling were further confirmed using a Survivin-luciferase reporter assay (FIG. 15). ICG-001's selective effects on the expression of Survivin and EphB2 may serve as indicators of ICG-001 on target tissue activity in vivo (FIG. 16) and a readout for pharmacokinetics/pharmacodynamics (PK/PD) as used previously in clinical trials with the second-generation CBP/β-catenin specific antagonist PRI-724 (Anthony et al. 2013).

[3] = system: Wnt target genes BIRC5/Survivin and EphB2; assay: Quantitative RT-PCR of Wnt target genes in mouse glioma cell lines; type: cell-based
Method: as §1, §2, §3

[4] = system: subcutaneous K-luc tumors; assay: IHC of immune cells in syngeneic subcutaneous K-luc glioma tumors; type: in vivo, mice (C57BL/6); details: 50 mg/kg/day by subcutaneous Alzet minipumps
Method: FIG. 22. IHC analysis of immune cells in syngeneic models of subcutaneous glioma (K-Luc). (A-D) Mice bearing subcutaneous K-luc glioma tumors were treated with ICG-001 (50 mg/kg/day) for 7, 14, or 21 days. At the end of treatment, tumor was excised and IHC stained for CD3 cells to evaluate recruitment and patterns of CD3 distribution (red). (E) Quantification of tumor coverage using ImageJ for mouse CD3, CD4, CD8, and CD31 positive cells on days 0-21. Scale bars are S.D. of duplicate sections (n=4).
Animal studies. Syngeneic mice (C57BL/6) of 8-12 weeks of age were implanted with subcutaneous K-Luc tumors (n=8). 7 days after, when tumors became palpable and after confirmation of the tumor presence with BLU imaging, mice were implanted with Alzet minipumps with ICG001 (50 mg/kg/day). Pumps were continuously providing a daily dose of ICG-001. […]
IHC was performed in COH pathology core. Tissues were scanned and quantification of CD4, CD8 and CD31 expression was done using ImageJ software.
Image analysis. Images were processed and analyzed in the ImageJ (Schneider et al. 2012, also see Schneider, C. A., Rasband, W. S., Image J, U. S. National Institutes of Health, Bethesda, Md., USA, https://imagej.nih.gov/ij/, 1997-2018). […] A watershed filter was then applied to this processed mask and the ‘Analyze Particles’ tool with a 4 pixel minimum size was employed to quantify the cells identified. […]

[5] = system: subcutaneous murine K-luc GBM tumors; assay: NanoString mouse immune panel of subcutaneous K-luc tumors; type: in vivo; details: 50 mg/kg/day, compared with untreated controls on day 21
Text: FIG. 23. NanoString analysis of subcutaneous K-luc tumors using the mouse immune panel. 750 mRNA concentration measurements, measured in baseline cells first at day 0 and then in subcutaneously transplanted tumors in separate mice at day 7, 14, and 21 (n=2). Sample 507 is a tumor that was not treated with ICG-001, was harvested on day 21, and is a baseline for comparison for days 7, 14, and 21. The log10 fold-change in mRNA expression was considered between 507 and the other samples.
Animal studies. Syngeneic mice (C57BL/6) of 8-12 weeks of age were implanted with subcutaneous K-Luc tumors (n=8). 7 days after, when tumors became palpable and after confirmation of the tumor presence with BLU imaging, mice were implanted with Alzet minipumps with ICG001 (50 mg/kg/day). Pumps were continuously providing a daily dose of ICG-001. Tumor tissues were harvested on days 7, 14, 21 post pump implantation and tumors were prepared for IHC (paraffin sections) and Nanostring analysis.
NanoString analysis of subcutaneous murine K-luc GBM tumors The ICG-001 and saline control treated tumors were harvested on days 7, 14, and 21. Freshly frozen K-luc tumors were used for RNA isolation and NanoString analysis to determine endogenous immune response upon treatment with ICG-001. […]

[6] = target: β-catenin/CBP interaction (Homo sapiens, UniProt Q92793); details: cited from earlier work
Chain of β-catenin/CBP interaction (Q92793 whole entry): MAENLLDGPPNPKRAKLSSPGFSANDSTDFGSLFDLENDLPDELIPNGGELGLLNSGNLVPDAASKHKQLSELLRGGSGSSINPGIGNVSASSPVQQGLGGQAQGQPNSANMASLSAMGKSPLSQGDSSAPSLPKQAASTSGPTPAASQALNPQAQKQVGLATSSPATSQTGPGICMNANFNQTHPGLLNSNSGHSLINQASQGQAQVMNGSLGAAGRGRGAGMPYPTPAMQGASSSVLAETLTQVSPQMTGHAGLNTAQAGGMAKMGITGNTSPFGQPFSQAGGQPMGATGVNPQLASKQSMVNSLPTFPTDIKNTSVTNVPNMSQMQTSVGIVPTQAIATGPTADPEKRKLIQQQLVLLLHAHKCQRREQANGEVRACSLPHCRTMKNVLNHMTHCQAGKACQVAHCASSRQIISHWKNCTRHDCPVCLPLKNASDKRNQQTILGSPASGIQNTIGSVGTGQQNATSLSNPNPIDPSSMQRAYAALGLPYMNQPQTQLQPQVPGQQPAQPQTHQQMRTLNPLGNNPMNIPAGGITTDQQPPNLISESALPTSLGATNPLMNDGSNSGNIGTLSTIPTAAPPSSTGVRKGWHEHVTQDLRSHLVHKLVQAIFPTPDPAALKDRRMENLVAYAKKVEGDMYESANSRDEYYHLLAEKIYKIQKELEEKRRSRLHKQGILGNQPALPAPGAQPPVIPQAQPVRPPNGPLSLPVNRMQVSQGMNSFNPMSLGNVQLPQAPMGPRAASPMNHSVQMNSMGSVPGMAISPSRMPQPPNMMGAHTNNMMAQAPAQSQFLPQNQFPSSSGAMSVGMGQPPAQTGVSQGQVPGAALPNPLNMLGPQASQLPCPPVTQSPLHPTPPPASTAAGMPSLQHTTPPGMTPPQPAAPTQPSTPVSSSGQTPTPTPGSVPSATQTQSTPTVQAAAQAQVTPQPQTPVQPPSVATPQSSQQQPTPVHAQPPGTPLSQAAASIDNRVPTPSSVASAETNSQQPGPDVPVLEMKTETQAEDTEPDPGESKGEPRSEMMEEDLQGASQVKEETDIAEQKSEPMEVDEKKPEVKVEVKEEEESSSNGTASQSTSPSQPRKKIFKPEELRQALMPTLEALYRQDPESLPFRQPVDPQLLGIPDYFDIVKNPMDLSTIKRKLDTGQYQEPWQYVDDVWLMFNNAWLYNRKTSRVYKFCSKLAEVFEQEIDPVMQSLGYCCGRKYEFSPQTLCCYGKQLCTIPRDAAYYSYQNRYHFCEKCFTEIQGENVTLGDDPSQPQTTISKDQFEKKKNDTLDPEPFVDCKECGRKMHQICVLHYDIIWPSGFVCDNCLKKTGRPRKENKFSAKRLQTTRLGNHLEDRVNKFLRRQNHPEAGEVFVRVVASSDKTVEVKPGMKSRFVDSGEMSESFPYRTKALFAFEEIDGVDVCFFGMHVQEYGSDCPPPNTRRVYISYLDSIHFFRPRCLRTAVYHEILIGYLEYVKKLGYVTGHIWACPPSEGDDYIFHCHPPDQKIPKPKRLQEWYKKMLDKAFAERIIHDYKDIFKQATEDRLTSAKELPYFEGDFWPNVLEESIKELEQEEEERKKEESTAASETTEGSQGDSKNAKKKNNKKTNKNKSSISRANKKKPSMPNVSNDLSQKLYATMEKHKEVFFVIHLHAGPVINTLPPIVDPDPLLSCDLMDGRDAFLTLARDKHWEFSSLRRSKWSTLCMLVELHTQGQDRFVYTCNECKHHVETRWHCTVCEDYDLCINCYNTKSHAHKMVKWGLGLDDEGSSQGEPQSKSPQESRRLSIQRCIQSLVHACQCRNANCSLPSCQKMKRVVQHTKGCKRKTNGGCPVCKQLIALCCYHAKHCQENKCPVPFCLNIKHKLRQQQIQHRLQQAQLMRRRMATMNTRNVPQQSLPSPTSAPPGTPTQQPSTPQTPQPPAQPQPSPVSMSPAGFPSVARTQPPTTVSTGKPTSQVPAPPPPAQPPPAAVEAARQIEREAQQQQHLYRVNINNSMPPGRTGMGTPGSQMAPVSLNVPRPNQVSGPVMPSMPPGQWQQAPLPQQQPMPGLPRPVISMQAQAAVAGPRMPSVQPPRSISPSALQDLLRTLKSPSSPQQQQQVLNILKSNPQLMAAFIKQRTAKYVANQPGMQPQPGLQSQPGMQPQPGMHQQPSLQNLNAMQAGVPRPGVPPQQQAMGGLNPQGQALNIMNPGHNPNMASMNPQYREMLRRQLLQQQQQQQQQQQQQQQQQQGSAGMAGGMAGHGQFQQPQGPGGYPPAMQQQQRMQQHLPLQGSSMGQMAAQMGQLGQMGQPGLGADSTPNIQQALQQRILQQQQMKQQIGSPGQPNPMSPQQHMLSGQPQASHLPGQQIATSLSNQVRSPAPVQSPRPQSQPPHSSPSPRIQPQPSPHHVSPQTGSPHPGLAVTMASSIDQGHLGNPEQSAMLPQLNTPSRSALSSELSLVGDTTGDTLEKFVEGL

SMILES: O=C1[C@H](Cc2ccc(O)cc2)N2C(=O)CCN(C(=O)NCc3ccccc3)[C@H]2CN1Cc1cccc2ccccc12 [ICG-001]
- tumor cell killing, ICG-001 in combination with IL13Rα2-CAR T cells [1]: synergistic killing
- expression of Wnt/p300/β-catenin target gene EphB2 [2]: upregulating
- expression of Wnt/CBP/β-catenin target gene BIRC5/Survivin ([2]; ICG-001 0-10 μM): selectively downregulated
- expression of Wnt/p300/β-catenin target gene EphB2 [3]: upregulating
- expression of Wnt/CBP/β-catenin target gene BIRC5/Survivin ([3]; ICG-001 0-10 μM): selectively downregulated
- CD3+, CD8+, and CD4+ cells infiltrating the tumor ([4]; by day 14): increase in mouse host immune cells
- CD31 expression in tumor ([4]; days 7, 14, 21): time-dependent increase
- immune pathways (mRNA) in tumor versus untreated controls [5]: concentration dependent increase in immune pathways
- blockade of β-catenin/CBP versus β-catenin/p300 interaction [6]: selectively blocks the β-catenin/CBP interaction without interfering with the β-catenin/p300 interaction

Source: patent US20220354852A1, “TARGETING WNT SIGNALING FOR IMPROVED GLIOMA IMMUNOTHERAPY” (CITY OF HOPE, priority 2021, published 2022)
